The record followed here is BindingDB's records for patent US10112941 (Bristol-Myers Squibb, 2018).

This test concerns the target Bromodomain-containing protein 4 (Homo sapiens, UniProt O60885). The test can be described thus: TR-FRET Assay. The protocol:
All assay components were dissolved in buffer composition 20 mM Hepes pH 7.5, 150 mM NaCl, 5 mM DTT, 0.005% Tween 20, and 100 ug/ml BSA for BRD4 (1-477 and 44-460). The final concentrations of the bromodomain proteins are 1.6 nM BRD4(44-168), 1 nM BRD4(333-460), and 1 nM BRD4(1-477 or 44-460), and the fluorescent probe molecule is 100 nM, 50 nM, and 7.5 nM respectively. All proteins were biotinylated. A streptavidin labeled with terbium cryptate (Cisbio SA-Tb) was used as detection, and pre-mixed with the bromodomain protein at a final concentration of 0.2 nM. In some instances for BRD4 (44-460), anti-His terbium cryptate was used as a detection. 7.5 nl of dose-responsed test compound or dmso vehicle (0.0375%) was pre-spotted in a black Corning 384 well plate and 10 ul each of bromodomain/detection reagent and fluorescent small molecule solution were added to the plate, and the reaction incubated for 60 min at room temperature. Plates were then read on EnVision plate reader, (λex=340 nm, acceptor λEm=520 nm, and donor λEm=615 nm, LANCE D400 mirror). Time resolved fluorescence intensity measurements were made at both emissions, and the ratio of acceptor/donor was calculated and used for data analysis.
A general note: TR-FRET usually uses a lanthanide donor and a delayed reading to cut background.

pIC50: −log10 of the molar value.

For orientation: pIC50 means the IC50 on a negative log10 scale, so that one unit is a factor of ten. A low value points to a high IC50. The compound `Cc1nnn(C)c1-c1cnc2c3ccc(C(C)(C)O)cc3n([C@@H](c3ccccc3F)C3CCOCC3)c2c1` [US10112941, Example 65] had a pIC50 greater than 8.30.
